# Results: paper PMC8460535, “Novel serotonin 5-HT2A receptor antagonists derived from 4-phenylcyclohexane-5-spiro-and 5-methyl-5-phenyl-hydantoin, for use as potential antiplatelet agents” (Pharmacological Reports, 2021)
# Read-outs that look alike come from different tables or passages of the source. Marks after values point to notes of the source that are not given here.
# Tests used:
# 5-HT2A receptor = conditions: cited from earlier work
# dopamine D2 receptor = biological target: dopamine D2 receptor; set-up: method as in Czopek et al., Acta Pol. Pharm. 73 (2016) 1545–1554; conditions: ref Czopek et al., Acta Pol. Pharm. 73 (2016) 1545–1554; read-out: Ki ± SEM [nM] D2; cited from earlier work
# [1] = biological target: T1, 5-HT2A receptors in rat aorta (Rattus norvegicus, UniProt P14842); conditions: already published; cited from earlier work
# T1 construct: Isolated rat aorta was used to determine the antagonistic activity of studied compounds for 5HT2A-receptors; from tissue; host or cells: aortic rings of male Wistar rats, denuded of the endothelium
# [2] = tested on: whole rat blood aggregation induced by collagen; experiment: In vitro whole rat blood aggregation induced by collagen (Multiplate); type: cell-based; conditions: collagen 1.6 μg/ml, na = not active
# Experimental: (§1) In vitro aggregation assays were performed using freshly drawn whole rat blood with a Multiplate platelet function analyzer (Roche Diagnostic), the five-channel aggregometer based on measurements of electric impedance. Blood was collected from carotid arteries with a hirudin blood tube (Roche Diagnostic). 300 μl of hirudin anticoagulated blood was mixed with 300 μl prewarmed isotonic saline solution containing studied compound or vehicle (deionized water or DMSO 0.1%) and preincubated for 3 min at 37 °C with continuous stirring. Aggregation was induced by adding collagen (Hyphen-Biomed, France) (final concentration 1.6 µg/ml), 5-HT (30 µM) and sub-threshold concentration of collagen (0.8 µg/ml), 5-HT (6 µM) and sub-threshold concentration of ADP (ADP test, Roche Diagnostic), (1.6 µM). The aggregation process was recorded for 6 min. Ketanserin (ketanserin ( +) tartrate salt, Sigma-Aldrich, Germany), sarpogrelate (sarpogrelate hydrochloride, Sigma-Aldrich, Germany), and aspirin (Tocris, UK) were used as reference compounds. The Multiplate software analyzed the area under the curve (AUC) of the clotting process of each measurement and calculated the mean values. Each concentration of studied compounds was tested at least three times. The exact sample size (n value) is presented on Figs. 2–4. Concentration-inhibition curves were constructed and analyzed by non-linear curve fitting using GraphPad Prism 6.0 (GraphPad Software Inc., San Diego, CA, USA).
# [3] = tested on: whole rat blood aggregation induced by 5-HT and collagen; experiment: In vitro whole rat blood aggregation induced by 5-HT and sub-threshold collagen; type: cell-based; conditions: 5-HT 30 μM and collagen 0.8 μg/ml, read-out: b (5-HT + collagen) IC50
# Experimental: as §1
# [4] = biological target: serotonin 5-HT1A receptor; set-up: method as in Czopek et al., Acta Pol. Pharm. 73 (2016) 1545–1554; conditions: ref Czopek et al., Acta Pol. Pharm. 73 (2016) 1545–1554; read-out: Ki ± SEM [nM] 5-HT1A; cited from earlier work
# [5] = tested on: whole rat blood aggregation induced by 5-HT and ADP; experiment: In vitro whole rat blood aggregation induced by 5-HT and sub-threshold ADP; type: cell-based; conditions: 5-HT 6 μM and ADP 1.6 μM, na = not active, read-out: c (5-HT + ADP) IC50
# Experimental: as §1
# human 5-HT2A receptor [6] = biological target: T2, human 5-HT2A receptor (Homo sapiens, UniProt P28223); experiment: 5-HT2A receptor radioligand binding assay ([3H]-ketanserin, CHO-K1 membranes); conditions: radioligand binding, compound 13 vs compound 3
# T2 construct: purchased PerkinElmer; host or cells: CHO-K1 cells, stably transfected
# Experimental: Stock solutions of tested compounds (10 mM) were prepared in DMSO. […] Each compound was tested in eight concentrations from 10^–5 to 10^–12 M (final concentration).
# Radioligand binding was performed using membranes from CHO-K1 cells stably transfected with the human 5-HT2A receptor (PerkinElmer). All assays were carried out in duplicates. Data were fitted to a one-site curve-fitting equation with Prism 6 (GraphPad Software) and Ki values were estimated from the Cheng − Prusoff equation. The full description of this assay is in Supplementary material.
# Mianserin (10 μM) was used to define nonspecific binding. […] The reaction was terminated by rapid filtration through GF/B filter mate presoaked with 0.5% polyethyleneimine for 30 minutes. Ten rapid washes with 200 µl 50 mM Tris buffer (4°C, pH 7.4) were performed using automated harvester system Harvester-96 MACH III FM (Tomtec). […] Radioactivity was counted in MicroBeta2 scintillation counter (PerkinElmer).
# [7] = tested on: whole rat blood aggregation induced by 5-HT and ADP; set-up: method as in PMID 29111111; conditions: 5-HT 6 μM and ADP 1.6 μM, already published, read-out: c (5-HT + ADP) IC50; cited from earlier work
# human 5-HT2A receptor [8] = biological target: T2, human 5-HT2A receptor; set-up: method as in PMID 29111111; conditions: cells expressing human 5-HT2A receptors; already published; cited from earlier work
# T1 sequence (P14842 whole entry): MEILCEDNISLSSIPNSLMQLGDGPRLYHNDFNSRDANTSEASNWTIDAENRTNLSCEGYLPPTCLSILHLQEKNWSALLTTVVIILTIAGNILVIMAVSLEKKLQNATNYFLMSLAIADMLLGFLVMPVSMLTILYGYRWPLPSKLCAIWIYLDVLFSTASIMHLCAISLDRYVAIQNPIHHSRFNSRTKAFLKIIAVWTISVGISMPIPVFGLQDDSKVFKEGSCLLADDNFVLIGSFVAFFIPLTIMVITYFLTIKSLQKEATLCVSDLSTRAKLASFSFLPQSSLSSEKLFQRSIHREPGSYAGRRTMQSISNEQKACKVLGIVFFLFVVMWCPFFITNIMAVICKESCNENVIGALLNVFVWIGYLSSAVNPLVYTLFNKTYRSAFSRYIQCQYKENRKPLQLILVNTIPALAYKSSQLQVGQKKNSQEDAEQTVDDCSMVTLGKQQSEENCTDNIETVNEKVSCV
# T2 sequence (P28223 whole entry): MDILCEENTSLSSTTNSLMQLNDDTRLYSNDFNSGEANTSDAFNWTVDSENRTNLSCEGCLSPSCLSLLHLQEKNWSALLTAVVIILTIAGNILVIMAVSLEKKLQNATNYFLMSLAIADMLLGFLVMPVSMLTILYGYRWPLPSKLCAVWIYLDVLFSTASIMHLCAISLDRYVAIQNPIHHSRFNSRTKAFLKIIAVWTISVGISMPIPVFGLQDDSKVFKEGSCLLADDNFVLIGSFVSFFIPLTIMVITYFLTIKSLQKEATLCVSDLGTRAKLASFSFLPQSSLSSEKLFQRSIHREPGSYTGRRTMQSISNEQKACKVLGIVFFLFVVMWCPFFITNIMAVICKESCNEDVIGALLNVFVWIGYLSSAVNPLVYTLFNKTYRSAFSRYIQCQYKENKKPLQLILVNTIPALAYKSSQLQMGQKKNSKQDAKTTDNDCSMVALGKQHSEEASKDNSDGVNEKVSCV
Compound,"Ki (5-HT2A receptor; 5-HT2A receptors, previous studies, read-out: Ki (5-HT2A) of earlier hydantoin leads)",Ki (dopamine D2 receptor),pKB ± SEM a [1],IC50 [2],IC50 [3],Ki [4],IC50 [5],fold higher affinity for 5-HT2A compared to compound 3 (human 5-HT2A receptor [6]),IC50 [7],pKB ± SEM b (human 5-HT2A receptor [8]),"Ki (5-HT2A receptor; Table S1, ref Czopek et al., Acta Pol. Pharm. 73 (2016) 1545–1554, read-out: Ki ± SEM [nM] 5-HT2A)","Ki (5-HT2A receptor; serotonin 5-HT2A receptors, already published and re-printed for comparison, read-out: Ki [nM] ± SEM)"
"O=C1NC2(CCC(c3ccccc3)CC2)C(=O)N1CCCN1CCN(c2ccccc2)CC1 (stereo not shown) [Compound 13, 8-phenyl-3-(3-(4-phenylpiperazin-1-yl)propyl)-1,3-diazaspiro[4.5]decane-2,4-dione]",50 nM,> 10000 nM,7.665 ± 0.03^a,27.3 ± 3.8 µM,53.3 ± 4.6 µM,1670 ± 75 nM,9.9 ± 2.5 µM,over 25 fold,,,,
COc1cccc(CCc2ccccc2OCC(CN(C)C)OC(=O)CCC(=O)O)c1 (stereo not shown) [Sarpogrelate],,,8.220 ± 0.08^b,66.8 ± 12.9 µM,,,,,22.7 ± 2.1 µM,7.296 ± 0.04^b,,
"O=C1NC2(CCC(c3ccccc3)CC2)C(=O)N1CCCN1CCN(c2cccc(Cl)c2)CC1 (stereo not shown) [Compound 14, 3-(3-(4-(3-chlorophenyl)piperazin-1-yl)propyl)-8-phenyl-1,3-diazaspiro[4.5]decane-2,4-dione]",,> 10000 nM,7.110 ± 0.05^a,,75.8 ± 16.6 µM,5210 ± 268 nM,93.8 ± 9.4 µM,,,,56 ± 7 nM,24 ± 2.5 nM
